In patent US20260191937A1, “AGENTS, COMPOSITIONS AND METHODS FOR MODULATING IMMUNITY” (The University of Queensland, priority 2022, published 2026):

B1: 6PGD: 6-phosphogluconate dehydrogenase ectopically expressed; retroviral Pgd overexpression in BMM; in b299 delivered as mRNA in DMONs (protein)
chain: MAQADIALIGLAVMGQNLILNMNDHGFVVCAFNRTVSKVDDFLANEAKGTKVVGAQSLKDMVSKLKKPRRVILLVKAGQAVDDFIEKLVPLLDTGDIIIDGGNSEYRDTTRRCRDLKAKGILFVGSGVSGGEEGARYGPSLMPGGNKEAWPHIKAIFQAIAAKVGTGEPCCDWVGDEGAGHFVKMVHNGIEYGDMQLICEAYHLMKDVLGMRHEEMAQAFEEWNKTELDSFLIEITANILKYRDTDGKELLPKIRDSAGQKGTGKWTAISALEYGMPVTLIGEAVFARCLSSLKEERVQASQKLKGPKVVQLEGSKKSFLEDIRKALYASKIISYAQGFMLLRQAATEFGWTLNYGGIALMWRGGCIIRSVFLGKIKDAFERNPELQNLLLDDFFKSAVDNCQDSWRRVISTGVQAGIPMPCFTTALSFYDGYRHEMLPANLIQAQRDYFGAHTYELLTKPGEFIHTNWTGHGGSVSSSSYNA
notes: 6-phosphogluconate dehydrogenase ectopically expressed; in b299 delivered as mRNA in DMONs

Experiments:
[1] = tested on: Human monocyte-derived macrophages (HMDM); assay: Cytokine release (ELISA) from human monocyte-derived macrophages pre-treated with RL5P; type: cell-based
Experimental: (§1) FIG. 3 is a graphical representation showing the effect of R5LP treatment of macrophages on the release of cytokines IL-1β and TNF. (A-B) Human monocyte-derived macrophages (HMDM) were pre-treated with ribulose-5-phosphate (RL5P) for 16 h at the indicated concentrations. Nigericin-triggered IL-1β release from LPS-primed cells (A), as well as LPS-induced TNF (B) in culture supernatants were assessed by ELISA. (C-D) BMM were pre-treated for 16 h with RL5P at the indicated concentrations. Nigericin-triggered IL-1β release from LPS-primed cells (C), as well as LPS-induced TNF (D) in culture supernatants were assessed by ELISA. Data were compiled from six independent experiments (or donors) and are presented as mean±S.E.M. Statistical significance was determined using two-way ANOVA followed by Sidak's multiple comparison test (ns—not significant; * p<0.05; ** p<0.01).
(§2) FIG. 4 is a graphical representation showing the effect of R5LP treatment of macrophages on the release of cytokine IL-6. HMDM and BMM were pre-treated with the indicated concentrations of RL5P for 16 h, after which they were either stimulated with LPS (10 ng/mL) or infected with uropathogenic Escherichia coli (UPEC) strain EC958 (MOI 100) for 4 h. Supernatants were then assessed for secreted IL-6 by ELISA. Data were compiled from six independent experiments (or donors) and are presented as mean±SEM. Panel A presents IL-6 release (ng/mL), Panel B present IL-6 release normalized to LPS alone. Statistical significance was determined using repeated measure two-way ANOVA followed by Dunnett's multiple comparison test (A-B) (ns—not significant).
(§3) BMM were generated from indicated strains of mice, as previously described (Das Gupta et al., 2020, Cell Rep. 30:2712-2728.e2718). Bone marrow cells were cultured for 6 days in RPMI-1640 media (Thermo Fisher Scientific) supplemented with 10% FCS, 50 U/mL penicillin, 50 μg/mL streptomycin and 2 mM L-glutamine, in the presence of recombinant human colony-stimulating factor 1 (CSF-1), at either 1×10^4 U/mL (Chiron) or 150 ng/mL (The University of Queensland Protein Expression Facility). On day 6, BMM were harvested and replated at an appropriate density with fresh CSF-1, with cells being used in experiments on the following day. […]
(§4) BMM (5×10^5 cells/mL) or HMDM (5×10^5 cells/mL) were treated as indicated in individual figure legends. Supernatants were collected and assessed for secreted TNF. […] Supernatants were collected and analyzed for levels of IL-1β. […]

[2] = tested on: bone marrow-derived macrophages (BMM); assay: Cytokine release (ELISA) from mouse bone marrow-derived macrophages pre-treated with RL5P; type: cell-based
Experimental: as §1, §2, §3, §4

[3] = tested on: uropathogenic Escherichia coli (UPEC) strain EC958; assay: Growth of UPEC strain EC958 with or without H2O2 oxidative stress (OD600, 12 h); type: cell-based
Experimental: FIG. 5 is a graphical representation showing effect of increasing RL5P concentrations on the growth of uropathogenic Escherichia coli (UPEC) strain EC958 under conditions of oxidative stress in the form of 0.8 mM H2O2. (A) EC958 was cultured±H2O2 (0.8 mM) in the presence of the indicated concentrations of RL5P for 12 h, during which growth was assessed (A600 at the indicated time points); (B) Area under the curve analysis for the 12 h period was calculated thereafter and is presented in FIG. 5B. Data are compiled from four independent experiments and are presented as mean±SEM. Each symbol represents a different experiment. Statistical significance for (B) was determined using repeated measure two-way ANOVA followed by non-parametric Kruskal Wallis test followed by Dunn's multiple comparison test (ns—not significant; * p<0.05; **** p<0.0001).
FIG. 6 is a graphical representation showing effect of increasing RL5P concentrations on the growth of UPEC under conditions of oxidative stress in the form of 1 mM H2O2. (A) EC958 was cultured±H2O2 (1 mM) in the presence of the indicated concentrations of RL5P for 12 h, during which growth was assessed (A600 at the indicated time points); (B) EC958 was cultured in the presence of the indicated concentrations of RL5P and the absence of H2O2 for 12 h, during which growth was assessed (A600 at the indicated time points). Data are compiled from four independent experiments and are presented as mean±SEM.
FIG. 7 is a graphical representation showing the effect of RL5P and 6-phosphogluconate (6PG) on the on the growth of UPEC under conditions of oxidative stress in the form of H202. (A) EC958 was cultured±H2O2 (0.8 mM) in the presence of the indicated concentration of RL5P or 6PG for 12 h, during which growth was assessed (A600 at the indicated time points); (B). Each symbol represents a different experiment. Statistical significance for (B) was determined using repeated measure two-way ANOVA followed by non-parametric Kruskal Wallis test followed by Dunn's multiple comparison test (ns—not significant; * p<0.05; **** p<0.0001).
All bacterial strains were cultured at 37° C. on solid or liquid Luria-Bertani (LB) medium. The non-pathogenic E. coli K12 strain MG1655 (Blattner et al., 1997. Science. 277:1453-1462) and EC958, a representative strain of the globally-disseminated multidrug-resistant ST131 clone isolated from the urine of a patient with a urinary tract infection (Totsika et al., 2011, PloS one. 6:e26578-e26578; Petty et al., 2014, Proc Natl Acad Sci USA. 111:5694-5699), were used in this study. […] Bacterial growth was assessed by monitoring OD600 using a POLARstar Omega (BMG Labtech) at 20-30 min intervals.

[4] = tested on: bone marrow-derived macrophages (BMM); assay: Retroviral overexpression of Pgd (6PGD) in BMM, cytokines by ELISA; type: cell-based, mouse
Experimental: FIG. 2 is a graphical representation showing the effect of over expression of the 6PGD gene on the release of cytokines IL-1β, TNF and IL-6. The Pgd gene was retrovirally overexpressed in BMM. Nigericin-triggered IL-1β release from LPS-primed cells (A), as well as LPS-induced TNF (B) and IL-6 (C), in culture supernatants were assessed by ELISA. Data were compiled from five independent experiments and are presented as mean±S.E.M. Statistical significance was determined using two-way ANOVA followed by Sidak's multiple comparison test (ns—not significant; * p<0.05; ** p<0.01).
Retroviral overexpression of target genes in primary macrophages was performed as previously described (Das Gupta et al., 2020, Cell Rep. 30:2712-2728.e2718). Briefly, 2×10^6 PlatE cells were transfected with 40 μg of the respective retroviral expression vectors using Lipofectamine 2000 (Thermo Fisher Scientific). At 24 h post-transfection, media were replaced and cells were incubated at 32° C. for 48 h for optimal virus production. Viral supernatants were filtered through a […] Millex-HV PVDF syringe filter (Merck) and supplemented with 1M HEPES, 10 μg/mL polybrene and CSF-1. Bone marrow progenitors treated with CSF-1 for 2 days were spin-infected (1000 g, 2 h, 35° C.) with viral supernatants in 6-well non-tissue culture plates. The cells were immediately supplemented with complete RPMI media, then incubated at 37° C. for 48 h. At 48 h post-transduction, cells were supplemented with complete RPMI media. On day 6 of macrophage differentiation, adherent cells were collected and plated for subsequent experiments.
BMM (5×10^5 cells/mL) or HMDM (5×10^5 cells/mL) were treated as indicated in individual figure legends. Supernatants were collected and assessed for secreted TNF. To assess secreted IL-1β by ELISA, cells were further treated with Nigericin for 1 h (2 h for HMDMs). Supernatants were collected and analyzed for levels of IL-1β. For experiments comparing macrophages derived from mice of different genotypes, MTT assays were performed in parallel to control for any differences in plating densities.

Molecule	inducible TNF production (secreted TNF) ([1]; HMDM pre-treated with RL5P for 16 h, ELISA)	Nigericin-triggered IL-1β release from LPS-primed cells ([1]; HMDM pre-treated with RL5P for 16 h, LPS, ELISA)	Suppression of IL-1β production in cells responding to Escherichia coli ([1]; HMDM, E. coli instead of LPS, effect in HMDM reduced to a lesser extent than in BMM)	inducible IL-6 production ([1]; HMDM, RL5P 16 h, then LPS (10 ng/mL) or UPEC EC958 (MOI 100) 4 h, ELISA)	inducible TNF production (secreted TNF) ([2]; BMM pre-treated with RL5P for 16 h, ELISA)	Nigericin-triggered IL-1β release from LPS-primed cells ([2]; BMM pre-treated with RL5P for 16 h, LPS, ELISA)	Suppression of IL-1β production in cells responding to Escherichia coli ([2]; BMM, E. coli instead of LPS)	inducible IL-6 production ([2]; BMM, RL5P 16 h, then LPS (10 ng/mL) or UPEC EC958 (MOI 100) 4 h, ELISA)	UPEC growth under oxidative stress ([3]; 0.8 mM H2O2)	UPEC growth under oxidative stress ([3]; 1 mM H2O2)	UPEC growth in the absence of oxidative stress ([3]; no H2O2)	LPS-induced IL-6 [4]	LPS-induced TNF [4]	inducible IL-1β response ([4]; Nigericin-triggered release from LPS-primed cells)
O=C(CO)[C@H](O)[C@H](O)COP(=O)([O-])[O][Na+] [RL5P, Disodium [(2R,3R)-2,3,5-trihydroxy-4-oxopentyl]phosphate]	dramatically reduced secreted TNF levels	suppressed LPS-inducible IL-1β production	much less pronounced	did not affect inducible IL-6 production	modest	suppressed LPS-inducible IL-1β production	much less pronounced	did not affect inducible IL-6 production	significantly impaired E. coli growth in a dose-dependent manner	also apparent	did not affect UPEC growth	–	–	–
B1	–	–	–	–	–	–	–	–	–	–	–	unaffected	significantly reduced LPS-induced TNF	attenuated the inducible IL-1β response
